Test results published in patent US20070065471A1, “Cosmetic/dermatological applications of PPAR receptor activators” (GALDERMA RESEARCH & DEVELOPMENT S.N.C., priority 2003, published 2007).

Assays:
sebaceous glands = test: Activity of PPAR activators on the size of sebaceous glands, daily topical application to rat back skin; assay type: in vivo, female Fuzzy or OFA rats; settings: once daily 4 weeks, control (acetone) = 1.00
Procedure: The evaluation of the activity of the compounds according to the invention is performed by daily topical application (once a day, weekends included) to the skin of the back of female Fuzzy or OFA rats, for 4 weeks. 30 animals of 9/10 weeks old were divided into groups of 6 animals.
The evaluation method entails weighing the animals at the start and end of the test and in evaluating the size of the sebaceous glands on epidermal leaflets.
The animals are euthanized and the treated area (back) is then shaved and defatted. The 8 mm biopsy samples are then incubated in 1 M NaBr. After separating out the epidermis, photographs are taken of the sebaceous glands and the images obtained are then analyzed using the Tina software (quantification of the area of the sebaceous glands, arbitrary area unit [mm^2]), version 2.09 g sold by Raytest GmbH.
The statistical analysis is performed according to Student's t test (XL software sold by Microsoft)
The results are expressed as the mean of the inductions (“Mean RI”) with the value of the standard error of the mean (“SEM”).
Student's t test (“stat”): NS not significant • *p<0.05 • **p<0.01 • ***p<0.001

PPAR gamma = molecular target: T1, PPAR gamma (Homo sapiens, UniProt P37231); test: PPAR transactivation test, PPAR gamma (HeLN reporter cells); assay type: cell-based; settings: luciferase reporter, Gal-hPPAR gamma, n.a. means not active, read-out: PPAR gamma Kd app
T1 sequence (P37231 238-505 limits assumed): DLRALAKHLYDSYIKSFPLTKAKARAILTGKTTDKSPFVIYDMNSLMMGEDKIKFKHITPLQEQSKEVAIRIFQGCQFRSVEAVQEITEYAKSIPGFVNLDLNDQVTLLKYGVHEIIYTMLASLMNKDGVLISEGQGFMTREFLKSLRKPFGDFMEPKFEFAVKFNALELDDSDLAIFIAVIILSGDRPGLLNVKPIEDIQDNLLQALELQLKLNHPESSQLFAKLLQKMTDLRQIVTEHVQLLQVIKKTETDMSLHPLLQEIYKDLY
Procedure: (§1) Activation of the PPAR receptors with an agonist (activator) in HeLN cells leads to the expression of a reporter gene, luciferase, which, in the presence of a substrate, generates light. The modulation of the PPAR receptors is measured by quantifying the luminescence produced after incubating the cells in the presence of a reference agonist. The ligands displace the agonist from its site. The measurement of the activity is performed by quantifying the light produced. This measurement makes it possible to determine the modulatory activity of the compounds according to the invention by determining the constant that represents the affinity of the molecule for the PPAR receptor. This value can fluctuate according to the basal activity and the expression of the receptor: it is referred to as Kd apparent (KdApp in nM).
(§2) Measurements are also taken for the total agonist controls with the same products.
(§3) The HeLN cell lines used are stable transfectants comprising the plasmids ERE-βGlob-Luc-SV-Neo (reporter gene) and PPAR (α, δ, γ) Gal-hPPAR. These cells are inoculated in 96-well plates at a rate of 10,000 cells per well in 100 µl of DMEN medium without phenol red and supplemented with 10% defatted calf serum. The plates are then incubated at 37° C. and 7% CO2 for 16 hours.
(§4) The various dilutions of the test products and of the reference ligand are added in a proportion of 5 µl per well. The plates are then incubated for 18 hours at 37° C., 7% CO2. The culture medium is removed by upturning and 100 μl of a 1:1 PBS/luciferin mixture are added to each well. After 5 minutes, the plates are read using a luminescence reader.

PPARs delta = molecular target: T2, PPARs delta (Homo sapiens, UniProt Q03181); test: PPAR transactivation test, PPAR delta (HeLN reporter cells); assay type: cell-based; settings: luciferase reporter, Gal-hPPAR delta, n.a. means not active, read-out: PPARs delta Kd app
T2 sequence (Q03181 171-441 limits assumed): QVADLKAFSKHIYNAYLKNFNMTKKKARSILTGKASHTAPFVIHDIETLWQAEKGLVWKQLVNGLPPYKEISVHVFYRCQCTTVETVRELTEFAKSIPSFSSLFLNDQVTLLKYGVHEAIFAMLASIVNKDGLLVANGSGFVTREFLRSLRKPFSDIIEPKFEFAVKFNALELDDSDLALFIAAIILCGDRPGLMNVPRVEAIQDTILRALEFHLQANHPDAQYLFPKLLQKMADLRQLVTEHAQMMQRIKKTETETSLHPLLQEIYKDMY
Procedure: as §1, §2, §3, §4

PPAR alpha = molecular target: T3, PPAR alpha (Homo sapiens, UniProt Q07869); test: PPAR transactivation test, PPAR alpha (HeLN reporter cells); assay type: cell-based; settings: luciferase reporter, Gal-hPPAR alpha, n.a. means not active, read-out: PPAR alpha Kd app
T3 sequence (Q07869 200-468 limits assumed): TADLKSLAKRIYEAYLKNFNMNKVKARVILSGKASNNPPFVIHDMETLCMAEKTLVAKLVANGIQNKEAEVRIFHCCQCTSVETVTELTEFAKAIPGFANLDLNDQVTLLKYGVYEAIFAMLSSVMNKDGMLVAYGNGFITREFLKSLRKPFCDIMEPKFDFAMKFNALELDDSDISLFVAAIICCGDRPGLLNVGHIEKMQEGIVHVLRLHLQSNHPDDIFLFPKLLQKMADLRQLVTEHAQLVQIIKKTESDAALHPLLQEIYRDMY
Procedure: as §1, §2
The HeLN cell lines used are stable transfectants comprising the plasmids ERE-βGlob-Luc-SV-Neo (reporter gene) and PPAR (α, δ, γ) Gal-hPPAR. These cells are inoculated in 96-well plates at a rate of 10,000 cells per well in 100 µl of DMEN medium without phenol red and supplemented with 10% defatted calf serum. […]
The various dilutions of the test products and of the reference ligand are added in a proportion of 5 µl per well. […] After 5 minutes, the plates are read using a luminescence reader.

## CN(CCOc1ccc(CC2SC(=O)NC2=O)cc1)c1ccccn1 (centres unmarked) [Example 1, 5-{4-[2-(methylpyrid-2-ylamino)ethoxy]-benzyl}thiazolidine-2,4-dione]
Sebaceous glands; Study 1, 0.1% topical
  Mean RI (sebaceous gland size): 0.73
Sebaceous glands; Study 1, 0.3% topical
  Mean RI (sebaceous gland size): 0.55
Sebaceous glands; Study 1, 1% topical
  Mean RI (sebaceous gland size): 0.51
Sebaceous glands; Study 2, 0.1% topical
  Mean RI (sebaceous gland size): 0.83

## COCCOCOc1ccc2cc(C(=O)N(C)Cc3cccc(-c4ccc(CC5SC(=O)NC5=O)cc4)c3)ccc2c1 (centres unmarked) [Example 2, N-methyl-N-[4′-(2,4-dioxothiazolidin-5-yl-methyl)biphenyl-3-ylmethyl]-6-(2-methoxyethoxymethoxy)-naphthalene-2-carboxamide]
Sebaceous glands; Study 2, 0.003% topical
  Mean RI (sebaceous gland size): 0.82
Sebaceous glands; Study 2, 0.03% topical
  Mean RI (sebaceous gland size): 0.75
Sebaceous glands; Study 2, 0.3% topical
  Mean RI (sebaceous gland size): 0.65
Sebaceous glands; Study 3, 0.3% topical
  Mean RI (sebaceous gland size): 0.66
Sebaceous glands; Study 4, 0.3% topical
  Mean RI (sebaceous gland size): 0.67
PPAR gamma
  Kd: 0.5 nM

## CCCCCCCNC(=O)N(C)c1cccc(-c2ccc(C[C@H](Nc3ccccc3C(=O)c3ccccc3)C(=O)O)cc2)c1 [Example 3, (S)-3-[3′-(3-heptyl-1-methylureido)biphenyl4-yl]-2-[2-(1-phenylmethanoyl)phenylamino]-propionic acid]
Sebaceous glands; Study 3, 0.01% topical
  Mean RI (sebaceous gland size): 1.02
Sebaceous glands; Study 3, 0.1% topical
  Mean RI (sebaceous gland size): 0.84
Sebaceous glands; Study 3, 1% topical
  Mean RI (sebaceous gland size): 0.74
PPARs delta
  Kd: 250 nM
PPAR gamma
  Kd: 15 nM

## CCCOc1ccc2cc(C(=O)N(C)Cc3cccc(-c4ccc(CC5SC(=O)NC5=O)cc4)c3)ccc2c1 (centres unmarked) [Example 4, N-methyl-N-[4′-(2,4-dioxothiazolidin-5-yl-methyl)biphenyl-3-ylmethyl)-6-propoxynaphthalene-2-carboxamide]
PPAR gamma
  Kd: 1 nM

## CCCCCCCC(=O)N(C)Cc1cccc(-c2ccc(C[C@H](OCC)C(=O)O)cc2)c1 [Example 5, (S)-2-ethoxy-3-{3′-[(methyloctanoylamino)methyl]biphenyl-4-yl}propionic acid]
PPARs delta
  Kd: 4000 nM
PPAR gamma
  Kd: 2 nM
PPAR alpha
  Kd: 500 nM

## COCCOCOc1ccc2cc(C(=O)N(C)Cc3cccc(-c4ccc(Nc5ccccc5C(=O)O)cc4)c3)ccc2c1 [Example 6, 2-{3′-[({1-[6-(2-methoxyethoxymethoxy)-naphthalen-2-yl]methanoyl}methylamino)methyl]biphenyl-4-ylamino}benzoic acid]
PPAR gamma
  Kd: 30 nM

## CN(C)c1ccc(NC(=O)N(C)c2cccc(-c3ccc(C[C@H](Nc4ccccc4C(=O)c4ccccc4)C(=O)O)cc3)c2)cc1 [Example 7, (S)-3-{3′-[3(4-dimethylaminophenyl)-1-methylureido]biphenyl-4-yl}-2-[2-(1-phenylmethanoyl)-phenylamino]propionic acid]
PPARs delta
  Kd: 4000 nM
PPAR gamma
  Kd: 8 nM

## CCCc1nnc([C@H](Cc2ccc(OCCc3nc(-c4ccccc4)oc3C)cc2)Nc2ccccc2C(=O)c2ccccc2)o1 [Negative Control, 1-{2-[(S)-2-{4-[2-(5-methyl-2-phenyloxazol-4-yl)ethoxy]phenyl}-1-(5-propyl[1,3,4]oxadiazol-2-yl)ethylamino]phenyl}-1-phenylmethanone, reference compound]
Sebaceous glands; Study 4, 0.01% topical
  Mean RI (sebaceous gland size): 1.12
Sebaceous glands; Study 4, 0.1% topical
  Mean RI (sebaceous gland size): 1.08
Sebaceous glands; Study 4, 1% topical
  Mean RI (sebaceous gland size): 1.08

## C[C@]12CCC(=O)CC1CCC1C2CC[C@@]2(C)C1CC[C@@H]2O (stereo partly drawn) [Positive Control, 5a-androstan-17β-ol-3-one, reference compound]
Sebaceous glands; Study 1, 0.3% topical
  Mean RI (sebaceous gland size): 1.73
